Biological target: T1, Der f 2 mite extract (Dermatophagoides farinae, UniProt Q00855)
T1 construct: Add 1.0 ml of 20 ug/ml Der f 2 mite extract; from tissue; host or cells: house dust mite extract (Dermatophagoides farinae)
T1 sequence (Q00855 18-146): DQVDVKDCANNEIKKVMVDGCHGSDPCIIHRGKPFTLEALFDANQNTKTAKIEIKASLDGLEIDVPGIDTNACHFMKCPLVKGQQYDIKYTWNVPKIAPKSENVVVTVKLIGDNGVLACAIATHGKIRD
Test: Efficacy Determination Protocol, ELISA (allergen neutralization)
Format: biochemical
Conditions: for Average Absorbance / % of Allergen Remaining: 1.4 wt.% of ion; for Average Absorbance: 490 nm, water control 1.7; for % of Allergen Remaining: Der f 2, normalized to water control = 100
Text: The efficacy of an allergen neutralization composition can be determined by the ELISA protocol. Enzyme-linked immunosorbent assay (“ELISA”) is a highly sensitive assay technique for detection and measurement of antigens or antibodies in solution. The assay uses enzyme-linked antigens or antibodies to amplify an antigen-antibody reaction. A single enzyme-linked antibody-antigen complex can convert orders of magnitude more of colorless substrate molecules into detectable colored products, thus considerably amplifying the original antigen-antibody reaction. The antigen or antibody is adsorbed onto the surface of the well of a microtiter plate, and all the relevant reactions take place in solution inside the well. While the following protocol will be easily understood by those skilled in the art, for a more detailed explanation please see Konishi, E. and Uehara, K. Enzyme-linked immunosorbent assay for quantifying antigens of Dermatophagoides farinae and D. pteronyssinus (Acari: Pyroglyphidae) in house dust samples, 1990, Entomologist Society of America, 27 (6), p. 993-998.
It is understood that those skilled in the art of allergen suppression will be aware of numerous variations to the protocol given below. For example, the monoclonal antibody may be substituted with a similar antibody, for example Der f 1 for Der f 2. But a standard, in this case water, is used and the results for the samples that contain active ingredients are normalized against the standard and the results reported as percentage of allergen remaining That is, the amount of allergen that is not neutralized. Thus, the allergen neutralization results for similar, but not identical antibodies should be substantially the same when normalized to the standard. Both Der f 1 and Der f 2 were tested for various compositions, but Der f 2 was chosen as the standard for the present Efficacy Determination Protocol because it is more difficult to neutralize. To be clear, the values for the % of allergen remaining that are reported in Table I will generally improve (that is, decrease) when tested with Der f 1.
At least two samples are prepared. One sample contains only distilled water and samples of one or more allergen neutralization compositions containing the allergen neutralization active, for example ZnCl2, tannin, etc. The samples are all treated according to the same protocol, and the distilled water sample is used as the control. All samples are prepared as follows:
1) Add 1.0 ml of 20 ug/ml Der f 2 mite extract to 0.8 ml of the sample composition (either the allergen neutralization composition or water for the control). Mix well and let sit for 1 hour at room temp.
2) Add 2.2 ml of 20% skim milk in Phosphate Buffer Saline (PBS).
3) Mix well by vortexing and centrifuge at 12000 rpm (approx. 17000×g) for 1 hour.
4) The supernatant is used for the ELISA protocol.
Each well of a microplate is coated at 4° C. overnight with 100 μl of Der f 2 monoclonal antibody (clone 15E11, from Asahi Breweries., AB-A-4) at a protein concentration of […] of Phosphate Buffer Saline (PBS), pH 7.4 containing 0.1% sodium azide. The monoclonal antibody is discarded and the plate is incubated with 100 μL of 1% BSA PBS containing 0.1% sodium azide for 1 hour. The plate is washed 3 times with PBS containing 0.05% Tween 20 (PBS-T). 100 μl of an allergen sample is added and incubated for 1 hour at 37° C.
Use 3× dilutions of a reference Dermatophagoides farinae crude extract (commercially available from LSL) to make the standard curve. The curve is made using 6.9 nanogram-mite extract equivalent/ml to 5 microgram-mite extract equivalent/ml. Wash plate with PBS-T for 3 times. 100 μl of Horse Radish Peroxidase (HRP) conjugated anti Der f 2 antibody (clone 13A4) is added at 40 ng/ml and the plate is incubated at 37° C. for 1 hour. The plate is then washed with PBS-T 3 times and then washed with water 3 times. […]

[1] = weight % of metal ion in the composition, inferred from Table III

## [Cl-].[Cl-].[Zn+2] [ZnCl2, Zinc chloride]
pH 3.6
  Average Absorbance: 0.70
  % of Allergen Remaining: 34%

## [Cl][Fe][Cl] [FeCl2]
pH 2.9
  Average Absorbance: 0.84
  % of Allergen Remaining: 44%

## O=S(=O)([O-])[O-].[Sn+2] [SnSO4]
pH 2.0
  Average Absorbance: 0.28
  % of Allergen Remaining: 22%

## [Cl][Sn][Cl] [SnCl2]
pH 2.1
  Average Absorbance: 0.54
  % of Allergen Remaining: 32%
pH 3.2
  Average Absorbance: 0.25
  % of Allergen Remaining: 18%
[1]
  effective amount if 80% removal is necessary: about 1.4%
  effective amount to remove 50% of allergens: less than 1.4%

## O=S(=O)([O-])[O-].[Fe+2] [FeSO4]
pH 3.5
  Average Absorbance: 1.13
  % of Allergen Remaining: 54%
